According to paper PMC9861162 (Pharmaceuticals, 2022):
Where “and” joins values, the source holds several entries; their conditions need not be identical. Identical values can stand only once. Like-named read-outs stand apart in the source and are kept apart here.

Key:
CYP1A2 = molecular target: T1, CYP1A2 (Homo sapiens, UniProt P05177); conditions: microsomes
T1 sequence (P05177 1-516): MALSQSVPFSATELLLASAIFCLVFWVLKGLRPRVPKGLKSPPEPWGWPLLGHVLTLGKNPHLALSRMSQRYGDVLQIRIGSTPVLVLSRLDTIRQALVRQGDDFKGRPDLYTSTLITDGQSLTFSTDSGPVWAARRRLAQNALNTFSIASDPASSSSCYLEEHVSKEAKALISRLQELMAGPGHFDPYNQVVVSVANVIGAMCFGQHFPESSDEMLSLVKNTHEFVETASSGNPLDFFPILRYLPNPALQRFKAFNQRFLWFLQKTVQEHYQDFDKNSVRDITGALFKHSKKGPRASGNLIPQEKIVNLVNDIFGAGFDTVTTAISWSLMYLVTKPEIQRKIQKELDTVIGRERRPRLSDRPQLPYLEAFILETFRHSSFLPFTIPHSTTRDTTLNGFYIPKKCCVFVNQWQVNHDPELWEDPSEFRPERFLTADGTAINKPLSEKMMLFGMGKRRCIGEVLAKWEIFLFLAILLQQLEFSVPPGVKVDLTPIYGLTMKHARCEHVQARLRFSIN
Description: (§1) The incubation conditions employed for each CYP450 isoform were performed, as previously described.
(§2) Buffer solution (0.1 mol/L aqueous phosphate buffer, pH 7.4, 69 µL), NADPH-regenerating solutions (10 µL solution A: 26 mmol/L NADP+, 66 mmol/L glucose-6-phosphate, and 66 mmol/L MgCl2; 2 µL solution B: 40 U/mL glucose-6-phosphate dehydrogenase in 5 mmol/L sodium citrate), and deionized water (69 µL) were added, in a total volume of 150 μL. The tubes were vortex-mixed and preincubated with continuous gentle shaking for 5 min at 37 °C in a shaking water bath. Reactions were initiated by the addition of 50 µL of HLM solution in the tubes which were gently mixed by hand and incubated with continuous gentle shaking at 37 °C. Aliquots of 200 µL ice-cold solvent (Table 1) containing IS (1 µg/mL) were added. […] The supernatants were transferred to glass autosampler vials and submitted to LC-MS/MS analysis (5 µL injection volume) to monitor the substrate metabolite formation.

CYP2D6 = CYP2D6 (Homo sapiens, UniProt P10635); conditions: microsomes
Description: as §1, §2

CYP2C19 = CYP2C19 (Homo sapiens, UniProt P33261); conditions: microsomes
Description: as §1, §2

CYP2C9 = CYP2C9 (Homo sapiens, UniProt P11712); conditions: microsomes
Description: as §1, §2

CYP2C8 = molecular target: T2, CYP2C8 (Homo sapiens, UniProt P10632); conditions: microsomes
T2 sequence (P10632 1-490): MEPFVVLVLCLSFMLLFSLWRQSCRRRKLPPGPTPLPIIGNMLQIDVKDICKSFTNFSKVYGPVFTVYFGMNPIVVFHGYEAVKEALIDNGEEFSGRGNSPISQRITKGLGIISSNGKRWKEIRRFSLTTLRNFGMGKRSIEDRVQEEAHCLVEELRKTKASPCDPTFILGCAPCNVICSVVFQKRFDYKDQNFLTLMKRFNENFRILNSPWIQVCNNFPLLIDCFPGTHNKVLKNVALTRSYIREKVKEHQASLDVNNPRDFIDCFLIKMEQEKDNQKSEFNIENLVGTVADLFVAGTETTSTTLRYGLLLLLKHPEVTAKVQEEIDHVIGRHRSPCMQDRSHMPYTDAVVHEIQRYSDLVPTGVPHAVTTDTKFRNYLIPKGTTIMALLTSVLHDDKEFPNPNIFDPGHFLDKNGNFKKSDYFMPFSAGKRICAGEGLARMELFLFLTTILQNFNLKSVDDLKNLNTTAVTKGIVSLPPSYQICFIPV
Description: as §1, §2

pityriasis versicolor = conditions: ref [5]; cited from earlier work
interdigital tinea pedis = conditions: ref [3]; cited from earlier work
[1] = dogs, observed, ref Palo et al. [7], cited from earlier work
CYP3A4/5 = assay: in vitro CYP450 metabolism inhibition assay in human liver microsomes, CYP3A (midazolam or nifedipine)
Description: as §1, §2

[2] = set-up: method as in Antunes et al. [14]; conditions: ref Antunes et al. [14], cited from earlier work
[3] = all trials; ref [3],[4],[5]; cited from earlier work
CYP2A6 = molecular target: T3, CYP2A6 (Homo sapiens, UniProt P11509); assay: in vitro CYP450 metabolism inhibition assay in human liver microsomes, CYP2A6 (coumarin); conditions: microsomes
T3 sequence (P11509 1-494): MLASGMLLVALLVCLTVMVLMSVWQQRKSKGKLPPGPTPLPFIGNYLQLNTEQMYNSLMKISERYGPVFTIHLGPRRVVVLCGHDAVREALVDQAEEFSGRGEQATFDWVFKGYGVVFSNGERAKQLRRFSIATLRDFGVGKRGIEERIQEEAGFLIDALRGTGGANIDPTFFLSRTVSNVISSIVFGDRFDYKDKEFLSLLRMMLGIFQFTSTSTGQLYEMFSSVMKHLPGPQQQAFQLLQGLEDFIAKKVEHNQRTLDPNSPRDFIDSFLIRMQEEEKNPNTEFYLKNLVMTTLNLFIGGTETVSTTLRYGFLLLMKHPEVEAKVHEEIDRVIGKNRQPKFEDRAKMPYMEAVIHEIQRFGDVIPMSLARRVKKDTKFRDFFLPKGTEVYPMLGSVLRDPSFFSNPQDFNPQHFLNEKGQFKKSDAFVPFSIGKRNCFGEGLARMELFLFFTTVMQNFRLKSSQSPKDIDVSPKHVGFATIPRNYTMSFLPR
Description: as §1, §2

[4] = tested on: several pathogenic fungi, such as Tricophyton verrucosum, Tricophyton rubrum, Trycophyton mantagrophutes, Microsporum gypseum, Microsporum canis, and …; conditions: ref [1]-[7]; cited from earlier work
[5] = set-up: method as in Antunes et al. [14]; conditions: ref Antunes et al. [14], cited from earlier work; remark: listed apart in the source

Chain of CYP2D6 (P10635 whole entry): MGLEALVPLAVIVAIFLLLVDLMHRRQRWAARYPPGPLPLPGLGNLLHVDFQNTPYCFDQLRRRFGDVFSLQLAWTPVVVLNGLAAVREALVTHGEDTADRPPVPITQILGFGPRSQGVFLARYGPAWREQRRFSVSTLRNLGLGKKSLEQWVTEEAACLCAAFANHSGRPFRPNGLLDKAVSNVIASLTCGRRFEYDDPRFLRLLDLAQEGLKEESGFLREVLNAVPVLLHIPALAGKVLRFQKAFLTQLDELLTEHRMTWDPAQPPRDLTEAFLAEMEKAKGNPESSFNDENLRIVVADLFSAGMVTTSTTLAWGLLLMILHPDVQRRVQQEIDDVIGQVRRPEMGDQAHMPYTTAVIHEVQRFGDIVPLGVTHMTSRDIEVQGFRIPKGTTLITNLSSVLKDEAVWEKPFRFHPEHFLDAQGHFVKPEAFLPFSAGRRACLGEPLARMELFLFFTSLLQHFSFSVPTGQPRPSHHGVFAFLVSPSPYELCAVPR
Chain of CYP2C19 (P33261 whole entry): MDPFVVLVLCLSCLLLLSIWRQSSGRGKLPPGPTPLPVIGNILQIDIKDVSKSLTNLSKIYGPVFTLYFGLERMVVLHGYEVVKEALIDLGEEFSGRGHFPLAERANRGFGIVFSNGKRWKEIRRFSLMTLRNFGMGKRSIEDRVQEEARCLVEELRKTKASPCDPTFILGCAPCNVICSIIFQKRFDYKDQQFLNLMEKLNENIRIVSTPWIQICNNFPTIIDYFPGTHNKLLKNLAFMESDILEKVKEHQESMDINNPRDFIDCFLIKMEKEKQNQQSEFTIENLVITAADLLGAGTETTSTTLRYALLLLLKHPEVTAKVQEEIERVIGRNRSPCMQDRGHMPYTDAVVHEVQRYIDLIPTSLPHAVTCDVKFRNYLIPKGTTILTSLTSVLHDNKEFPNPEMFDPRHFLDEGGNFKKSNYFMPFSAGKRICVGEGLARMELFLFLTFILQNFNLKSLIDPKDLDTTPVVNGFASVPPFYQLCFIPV
Chain of CYP2C9 (P11712 whole entry): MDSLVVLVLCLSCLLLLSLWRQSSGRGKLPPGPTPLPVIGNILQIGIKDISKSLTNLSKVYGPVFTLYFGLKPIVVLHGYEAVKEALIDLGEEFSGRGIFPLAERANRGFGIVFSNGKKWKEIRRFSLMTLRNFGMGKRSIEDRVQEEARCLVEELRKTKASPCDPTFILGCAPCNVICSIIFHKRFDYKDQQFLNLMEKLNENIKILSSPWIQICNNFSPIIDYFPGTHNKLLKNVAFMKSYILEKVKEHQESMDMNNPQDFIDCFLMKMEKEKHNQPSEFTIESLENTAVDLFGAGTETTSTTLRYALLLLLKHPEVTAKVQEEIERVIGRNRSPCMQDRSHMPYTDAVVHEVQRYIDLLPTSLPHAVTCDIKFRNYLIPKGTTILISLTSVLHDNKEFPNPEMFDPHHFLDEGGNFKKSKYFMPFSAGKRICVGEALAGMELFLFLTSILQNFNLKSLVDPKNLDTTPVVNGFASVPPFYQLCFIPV

FC(F)(F)c1ccc(COC(Cn2ccnc2)c2ccc(Cl)cc2Cl)cc1 (stereo not shown) [dapaconazole, Dapaconazole]
IC50 (CYP1A2): 3680 nM
Ki (CYP1A2): 1840 nM
Ki (CYP2D6): 430 nM
Ki (CYP2C19): 30 nM
Ki (CYP2C9): 110 nM
in vitro reversible inhibition class from IC50 (CYP2C8): slightly inhibits
efficacy compared with ketoconazole (pityriasis versicolor): noninferior efficacy
efficacy compared with ketoconazole (interdigital tinea pedis): noninferior efficacy
AUC0-t ([1]; intravenous 1 mg/kg): 255.0 ng·h/mL
CL ([1]; intravenous 1 mg/kg): 700.0 mL/min
Cmax ([1]; intravenous 1 mg/kg): 373.2 ng/mL
t1/2 Terminal ([1]; intravenous 1 mg/kg): 2.1 h
AUC0-t ([1]; intravenous 2 mg/kg): 779.9 ng·h/mL
CL ([1]; intravenous 2 mg/kg): 591.7 mL/min
Cmax ([1]; intravenous 2 mg/kg): 1444.7 ng/mL
t1/2 Terminal ([1]; intravenous 2 mg/kg): 2.5 h
AUC0-t ([1]; intravenous 20 mg/kg): 4780.1 ng·h/mL
CL ([1]; intravenous 20 mg/kg): 700.0 mL/min
Cmax ([1]; intravenous 20 mg/kg): 4708.3 ng/mL
t1/2 Terminal ([1]; intravenous 20 mg/kg): 2.3 h
IC50 (CYP3A4/5; HLM, 3A4, range over midazolam and nifedipine substrates): 8 to 30 nM
IC50 (CYP3A4/5; HLM, midazolam as substrate, figure in parentheses not defined): 7.69 nM
Ki (CYP3A4/5; Ki = IC50/2, substrate midazolam): 4 nM
IC50 (CYP3A4/5; microsomes): 30.3 nM
fu,inc ([2]; human liver microsome incubation): 0.94
CL int. mic. ([2]; human liver microsomes): 118.5 µL/min/mg
safety profile [3]: good safety profile
IC50 (CYP2A6): 20700 nM
antifungal activity [4]: antifungal activity
fu,inc ([5]; dog liver microsome incubation): 0.97
CL int. mic. ([5]; dog liver microsomes): 257.97 µL/min/mg and 258 µL/min/mg
